Data: a melting point compilation (Tetko et al.; mined from patent text by program, amines drawn as free bases though some values may be those of a salt)

Row | SMILES | melting point [°C]
1 | CCCCN(C)c1nsc(NC(=O)NC)c1C#N | 109 to 110
2 | COc1cccc2c1nc(C)n2C | 122 to 124
3 | Cn1cc(C(=O)O)c2cccc(F)c21 | 225 to 227
4 | COc1ccc(C=Cc2nnc(CCl)o2)cc1 | 139 to 141
5 | CN1C(=O)CC[C@]2(C)c3ccc(-c4c(F)c(F)c(Cl)c(F)c4F)cc3CC[C@@H]12 | 150 to 151
6 | COc1cc2c(c(OC)c1OC)C(CN1CCC(c3noc4cc(F)ccc34)CC1)=C2 | 141 to 143
7 | COc1cc(C(=O)c2c(C)c(OC)c3ccc(C(=O)O)cn23)ccc1[N+](=O)[O-] | 287
8 | Cc1cc(-c2ccc(C#N)cc2)sc1C(=O)O | 248 to 253
9 | c1cc2c(c(N3CCNCC3)n1)CCO2 | 89.5
10 | COCCN1C(=O)C(C)(C)C(=O)Nc2cc(C#N)ccc21 | 184 to 185
11 | O=C(NCCN1CCc2ccc3c(c21)CCO3)C1CC1 | 147 to 149
12 | CCCCC1CCc2cc(C(=O)C(C)C)cc3c(CCN4CCN(c5cc(C)ccn5)CC4)c(C)n1c23 (centres undefined) | 150
13 | COC(=O)C1(NC(=O)Cc2cc(-c3ccc(Cl)cc3)ccc2Cl)CCCCC1 | 124
14 | CC(=O)SCCC(=O)N1CC[C@H](SC(C)=O)[C@H]1C(=O)O | 145 to 148
15 | CCN1CC(C)=CC2=C1N1CN(OC)C=C1N=N2 | 202 to 203
16 | Cc1cc(N)ccc1NCCNC(N)=O | 143
17 | C[C@H](Nc1nc(C(N)=O)nc(Cl)c1-c1c(F)cc(F)cc1F)C(F)(F)F | 157 to 162
18 | Nc1c(Cl)cc(C(=O)NC2CCN(CCO)CC2)c2c1CCO2 | 186
19 | Cc1ccc(C(=O)C=CN(C)C)o1 | 123 to 125
20 | N#Cc1nn(-c2c(Cl)cc(C(F)(F)F)cc2Cl)cc1C1CC(=O)C1 | 127
21 | CC(C)(C)OC(=O)NC1CCC(CON2C(=O)c3ccccc3C2=O)C1 (centres undefined) | 162 to 163
22 | COC(=O)c1cccc(S(=O)(=O)N(C)C)c1C | 40 to 43
23 | CC(C)(C)C(=O)NNc1ccc([N+](=O)[O-])cc1Cl | 123
24 | CCNC(=O)c1nc2cc(NC(=O)c3c(C(=O)N4CCC4)cnn3C)ccn2n1 | 217 to 229

Row | SMILES | melting point [°C]
25 | CCOC(=O)c1cccn2cc(C(F)(F)F)nc12 | 108 to 110
26 | N#CC1(N2CCCC2)CCC2(CC1)OCCO2 | 65 to 67
27 | CCOCc1nc2c(N)nc3cc(OCCN4CCOCC4)ccc3c2n1CC(C)(C)O | 161 to 163
28 | N#CC(C(=O)C(F)(F)C(F)(F)F)c1ccccc1 (centres undefined) | 94 to 95
29 | CCCCOCCCNC(=O)C(C)(C(C)C)C(C)C | 40
30 | COc1cc(-c2ccc(O)c(C3(C)CCCCC3)c2)cc(CC2SC(N3CCCC3)=NC2=O)c1O (centres undefined) | 204 to 206
31 | CN1C(=O)Cc2cscc2S1(=O)=O | 148 to 149
32 | CC(C)n1c(=O)nc(-c2ccc3c(c2)OCO3)c2cc3c(cc21)OCCO3 | 229 to 231
33 | CCOc1cc(C=[N+]([O-])C(C)(C)CC(C)(C)C)ccc1OC | 77.5
34 | O=C1CCC2C=C(c3cccnc3)C=C(F)C2N1 (centres undefined) | 203
35 | COC(=O)CN(C=O)C1c2ccccc2CC1(C)C (centres undefined) | 172 to 173
36 | Cc1cc2oc(=O)c3c(c2cc1[N+](=O)[O-])CCN(CCN1CC2CCC(CC2)C1)C3 | 187 to 188
37 | CN(C(=O)CCNC#N)c1nnc(-c2cccnc2)s1 | 155 to 159
38 | CC(C)c1nc2cc3c(cc2[nH]1)NC(=O)C3(C)C | 282 to 284
39 | COc1cc2c(cn1)CCC(=CN(C)C)C2=O | 102 to 104
40 | Cc1noc(-c2ncn3c2[C@@H]2CCN2C(=O)c2c-3cccc2C(F)(F)F)n1 | 255 to 256
41 | O=C1c2c(Cl)cccc2-n2cnc(-c3noc(CCl)n3)c2[C@@H]2CCCN12 | 184 to 186
42 | N#Cc1ccc(N2CCC(=O)CC2)c2ccccc12 | 143 to 144
43 | CC1(c2ccc(I)cc2)CO1 (centres undefined) | 44 to 45
44 | COc1cc(C(C)=O)ccc1OCCCCCCl | 57 to 58
45 | c1ccc2c(c1)-c1ccccc1C21c2ccccc2-c2ccc(-n3ccnc3-c3nccn3-c3ccc4c(c3)C3(c5ccccc5-c5ccccc53)c3ccccc3-4)cc21 | 404 to 412
46 | c1cc(-c2ccc(-c3cn([C@H]4CN5CCC4CC5)nn3)s2)ccc1CN1CCCCC1 | 230
47 | COc1ccc(F)cc1C1OC(=O)CC1C(=O)O (centres undefined) | 41 to 43
48 | CC1(C)CCC2(C(=O)O)CCC3(C)C(=CCC4C5(C)CC(O)C(O)C(C)(CO)C5CCC43C)C2C1O (centres undefined) | 220 to 222

Now from value to compound:

Row | melting point [°C] | SMILES
49 | 84 to 86 | CCOC(=O)[C@@H](Cc1ccccc1)C[C@H](Cc1ccccc1)C(=O)NCCC(=O)O (relative stereo)
50 | 107 to 108 | FC(F)(F)c1cc(CN2CCc3cc(OC[C@H]4CO[C@](Cn5ccnc5)(c5ccc(Cl)cc5Cl)O4)ccc3C2)ccc1Cl (racemic)
51 | 94 to 95 | COC(=O)[C@@H](C)c1ccc2c(Br)c(OC)ccc2c1
52 | 208 to 209 | O=C(Nc1ccc(Br)cc1)N1COC2(c3ccc(F)cc3)Cc3cc(F)ccc3C2=N1 (centres undefined)
53 | > 300 | CN(C)c1ccc2nc(-c3c[nH]c4ccccc34)[nH]c(=O)c2c1
54 | 165 to 167 | Nc1nc(-c2ccc(CCCCN3CCN(c4ccccc4)CC3)s2)cs1
55 | 83.4 to 85.3 | Nc1ccccc1Cn1cc(C(F)(F)F)ccc1=O
56 | 134 to 137 | COC(=O)CCc1cccc(-n2c(C)nn(-c3ccc(C#N)cc3)c2=O)c1
57 | 142 to 144 | Cc1c(NC(=O)CC(C)(C)C)c(C)c2c(c1-c1cccnc1)OCC2c1ccc(C(C)C)cc1 (centres undefined)
58 | 227 to 228 | CCn1c(=O)ccc2cnc(Nc3ccc(N4CCOCC4)cc3)nc21
59 | 150 to 152 | O=C1C(=O)c2ccc(Br)cc2C2=C1SCC1(CCN(CC(O)COc3ccc(Cl)cc3)CC1)O2 (centres undefined)
60 | 128 to 129 | CCCCc1oc2ccccc2c1-c1ccc(-c2ccc(O)cc2)cc1
61 | 110 to 111 | N#Cc1ccc(Cc2ccc(OCc3ccccc3)cc2)cc1
62 | 129 to 132 | CCOC(=O)c1cnc2sc(SCc3ccccc3)nn2c1=O
63 | 118 to 120 | COc1ccc(-c2nc(CCC(=O)O)oc2-c2ccccc2)cc1
64 | 195 to 197 | CON(Cc1nc2c(N)nc3cc(OCc4ccccc4)ccc3c2n1CC1CCOCC1)S(C)(=O)=O
65 | 44.5 to 45.5 | CC1(C)C(=O)ON(Cc2ccccc2Br)C1=O
66 | 78 to 80 | CC(Oc1ncn(-c2ccccc2)n1)C(=O)OCc1ccccc1 (centres undefined)
67 | 244 to 251 | CCNC(=O)c1ccccc1Nc1nc(Nc2cc3c(cc2OC)CC(=O)N(CC)CC3)ncc1Cl
68 | 190 | COc1ccc2ccc(N3Cc4ccccc4C3OCC(=O)O)nc2n1 (centres undefined)
69 | 200 to 201 | Cc1cccc(C)c1C#CCOCCn1cnc2c(N)nc3ccccc3c21
70 | 54 to 55 | CCCCCCn1c2ccccc2c2ccc(CO)cc21
71 | 80 to 86 | O=C(O)Cc1ccc(OCCNC(=O)C2Cc3ccccc3N2S(=O)(=O)c2ccc(-c3cc(Cl)ccc3Cl)cc2)cc1 (centres undefined)
72 | 105 to 106 | COc1cc(OCc2ccc3ccccc3c2)cc(C(=O)c2nccs2)c1
73 | 122 to 129 | O=C(Cn1ccnc1)c1ccc(Cl)cn1
74 | 175 | CCOC(=O)c1ccc2nc3cscc3c(=O)n2c1

Row | melting point [°C] | SMILES
75 | 130 to 131 | CCC(COC)c1ccc(Cl)c2nc3n(c12)CCCN3c1ccc(Cl)cc1Cl (centres undefined)
76 | 119 to 122 | COc1ccc([C@H]2CCCC[C@H]2NC(=O)c2ccc(C(=O)c3ccccc3)cc2)cc1OC
77 | 156 to 158 | CC(c1ccccc1Cl)n1cnc2cnc3ccccc3c21 (centres undefined)
78 | 195 to 196 | CCCc1nc2c(ccc3cc(C(=O)N4CCC(Cc5ccccc5)CC4)[nH]c32)o1
79 | 92 to 94 | O=C(Cn1c(-c2ccccc2)ncc(NS(=O)(=O)c2ccccc2)c1=O)NC(Cc1ccccc1)C(=O)C(F)(F)F (centres undefined)
80 | 174 to 178 | CC1(C)Oc2cc(C#N)sc2[C@@H](N2CCCCC2=O)[C@@H]1OCc1ccccc1 (relative stereo)
81 | 226 to 227 | O=C1COc2ccc(C3=Cc4ccccc4SC3c3ccccc3)cc2N1 (centres undefined)
82 | 236 to 240 | Sc1nnc(-c2cc3c(Oc4ccc(Cl)cc4)cncc3s2)o1
83 | 140 to 150 | Cc1noc(NS(=O)(=O)c2ccccc2-c2ccc(-c3ncco3)cc2CN2CCN(c3ccccc3)C2=O)c1C
84 | 158 to 160 | CCN(CC)CCNCc1ccc(C(=O)Nc2nc(-c3ccccc3)c(-c3ccc(=O)n(C(C)C)n3)s2)cc1
85 | 131 to 132 | CCNC(=O)CC(c1ccc(OC)c(OC)c1)N1C(=O)c2ccccc2C1=O (centres undefined)
86 | 198 to 200 | COc1ccc(C(=O)O)c(COc2ccc(CC(=O)O)cc2)c1
87 | 136 to 138 | COC(=O)Oc1c(Cl)c(-c2ccc(Cl)cc2)oc(=O)c1-c1c(C)cc(C)cc1C
88 | 85 to 85.5 | COCCOc1ccc(CO)c(Oc2ncc(C(F)(F)F)cc2Cl)c1
89 | 63 to 66 | FC(F)(F)c1ccc(Oc2ccc(OCc3ccccc3)cc2)c(Cl)c1
90 | 157 to 160 | COc1ccc2c3c1OC(c1ccccc1)N3C(=O)C1CCCN1C2=O (centres undefined)
91 | 203 to 205 | CCCCn1c(=O)c2nn(S(=O)(=O)c3cccc4cccnc34)cc2n(CCCC)c1=O
92 | 77 to 79 | CCOC(=O)CCCCCCCSc1nc(-c2ccccc2)c(-c2ccccc2)[nH]1
93 | 100 to 102 | Cc1ccc(CSC2=C(O)CC(C)(C)CC2=O)cc1
94 | 257 to 260 | O=C1NCc2c1cc1ccc3c(c1c2-c1cccnc1)OCO3
95 | > 250 | O=C1Nc2ccccc2C(=O)C1=O
96 | 78 to 80 | N#CN=C(NCCSCc1ccccn1)NCCSCc1ccccn1
97 | 120 to 121 | CCOC(=O)C(=O)Oc1cccc(-c2cn3c(n2)sc2ccccc23)c1
98 | 228 to 231 | CC(C)(C(=O)NC(Nc1c(Nc2cccnc2)c(=O)c1=O)C(C)(C)Cc1ccccc1)c1ccccc1 (centres undefined)
99 | 180 to 182 | O=c1c(-c2ccccc2)cc([N+](=O)[O-])c2n1CCc1ccsc1-2
